From patent publication US12156873B2, “Composition for treating ocular hyperemia and a method for treating ocular hyperemia with the same” (ADS Therapeutics LLC, priority 2018, dated 2024)

Assays:
Type in all cases: in vivo
[1] = tested on: Ocular hyperemia patients; experiment: Ocular hyperemia patients treated topically with emulsion formulations BID for 2 weeks, hyperemia graded from eye pictures
Method: Ocular hyperemia patients with hyperemia grade >2 (0-4, five-point scale; 0 being clear of hyperemia and 4 being of severe hyperemia) are selected for treatment with 4 emulsion formulations. Each group has about 20 patients. The patients are assigned to the groups in a way to make sure the base line average grade is similar among the groups. The formulations are dosed twice a day (BID) for 2 weeks and the patients are further followed up for 4 weeks. The formulations are administered topically by a physician on the day of visits or by the patient between visits. Patients are evaluated on day 1, week 1, and 2, before and after dosing. After the stop of dosing, patients are further followed up at 4 and 6 weeks.
The effect on ocular hyperemia is evaluated by taking pictures of the eye. […] The tolerability of the formulations is also evaluated with standard eye examinations commonly used for such assessment. The efficacy and tolerability data are analyzed by independent statisticians.

[2] = tested on: pterygium patients; experiment: Phase 2a clinical trial stage 1: single dose escalating safety, tolerability and pharmacokinetics study; settings: single dose 0.02%, 0.05%, 0.2% eye drop
Method: (§1) Nintedanib was formulated into an eye drop and tested in pterygium patients in a Phase 2a clinical trial to evaluate the safety and efficacy of nintedanib. The key efficacy endpoint is effects on pterygium vascularity.
The clinic trial was conducted in two stages. In stage 1, the safety, tolerability and pharmacokinetics were evaluated in a single dose escalating study. Three dose cohorts with 8 patients in each were evaluated. Cohort 1 began at the lowest concentration of 0.02% nintedanib (weight percent based on the total weight of the eye drop), followed by an increasing dose to 0.05% for Cohort 2 and then to 0.2% for Cohort 3.

[3] = tested on: pterygium patients; experiment: Phase 2a clinical trial stage 2: 0.2% nintedanib eye drop vs vehicle, 28 days TID, pterygium vascularity graded from photographs
Method: as §1
In stage 2, the safety, tolerability and efficacy of the 0.2% formulation were evaluated in a randomized, double-masked, vehicle-controlled, parallel study with 28 days TID repeat ocular dosing of vehicle and 0.2% nintedanib. The patients were further followed up by 20 weeks of post-dosing observation. Ophthalmic and physical examinations were performed at screening, Day 1 and Week 2, 4, 8, 16, and 24. External photograph of the pterygium eye was taken using a digital camera and the pterygium vascularity was graded from these images at an independent image reading center. The primary objective is to evaluate ocular and systemic safety of nintedanib in pterygium patients that have moderate to severe pterygium vascularity. The secondary objective is to assess whether the formulation is efficacious in reducing pterygium vascularity.
A total of 50 patients were enrolled and randomized in a 1:1 treatment allocation to receive either nintedanib or vehicle. The final analysis was performed after study completion. The O'Brien-Fleming group-sequential method was used for a multiple-comparison adjustment of p-values for efficacy. For the final analysis, a 2-sided test with p-value ≤0.048 is considered statistically significant for all between and within treatment comparisons.

[4] = Day 1 before dosing (baseline), 0-4 five-point scale, BID topical
[5] = Wee 4 (follow-up, 2 weeks after stop of dosing), 0-4 scale
[6] = Week 6 (follow-up, 4 weeks after stop of dosing), 0-4 scale

Brc1c(NC2=NCCN2)ccc2nccnc12 [Brimonidine, (5-Bromoquinoxalin-6-yl)-(4,5-dihydro-1H-imidazol-2-yl)-amine]
Average Hyperemia Grade ([1]; Day 1 2 h post, 0-4 scale): 2 | Average Hyperemia Grade ([1]; Day 1 6 h post, 0-4 scale): 3 | Average Hyperemia Grade [1, 4]: 3 | Average Hyperemia Grade [1, 5]: 3 | Average Hyperemia Grade ([1]; Week 1 2 h post, 0-4 scale): 2 | Average Hyperemia Grade ([1]; Week 1 before, 0-4 scale): 3 | Average Hyperemia Grade ([1]; Week 2 2 h post, 0-4 scale): 2 | Average Hyperemia Grade ([1]; Week 2 before, 0-4 scale): 3 | Average Hyperemia Grade [1, 6]: 3 | duration of effect on hyperemia grade at each of the visits ([1]; after dosing): 2 to 4 h | hyperemia grade after dosing ([1]; day 1, week 1 and 2): reduced immediately after dosing | hyperemia grade after stop of treatments ([1]; week 4 and 6): the same as the baseline

COC(=O)c1ccc2c(c1)NC(=O)/C2=C(\Nc1ccc(N(C)C(=O)CN2CCN(C)CC2)cc1)c1ccccc1 [Nintedanib, (Z)-3-(1-(4-(N-((4-methyl-piperazin-1-yl)-methylcarbonyl)-N-methyl-amino)-phenylamino)-1-phenyl-methylene]-6-methoxycarbonyl-2-indolinone]
safety [2]: No safety issues were found at all doses | Average Hyperemia Grade ([1]; Day 1 2 h post, 0-4 scale): 3 | Average Hyperemia Grade ([1]; Day 1 6 h post, 0-4 scale): 3 | Average Hyperemia Grade [1, 4]: 3 | Average Hyperemia Grade [1, 5]: 2.5 | Average Hyperemia Grade ([1]; Week 1 2 h post, 0-4 scale): 2 | Average Hyperemia Grade ([1]; Week 1 before, 0-4 scale): 2 | Average Hyperemia Grade ([1]; Week 2 2 h post, 0-4 scale): 2 | Average Hyperemia Grade ([1]; Week 2 before, 0-4 scale): 2 | Average Hyperemia Grade [1, 6]: 3 | time the grade reduction remained significant after the stop of dosing ([1]; after 2 weeks BID dosing): 2 weeks | hyperemia grade, drug effect on day 1 ([1]; day 1, comparing to the baseline): did not change significantly | hyperemia grade reduction from baseline ([1]; week 1 and 2): about 1 grade | safety and tolerability ([3]; 0.2% eye drop, 28 days TID): excellent with no serious adverse events | Mean grade Difference, nintedanib vs vehicle (pterygium vascularity) ([3]; Day 1 (baseline)): −0.15 | Mean change from baseline Difference, nintedanib vs vehicle (pterygium vascularity) ([3]; Week 2): −0.72 | Mean grade Difference, nintedanib vs vehicle (pterygium vascularity) ([3]; Week 2): −0.87 | Mean change from baseline Difference, nintedanib vs vehicle (pterygium vascularity) ([3]; Week 4 (end of dosing)): −0.76 | Mean grade Difference, nintedanib vs vehicle (pterygium vascularity) ([3]; Week 4 (end of dosing)): −0.91 | Mean change from baseline Difference, nintedanib vs vehicle (pterygium vascularity) ([3]; Week 8): −0.41 | Mean grade Difference, nintedanib vs vehicle (pterygium vascularity) ([3]; Week 8): −0.53 | Mean change from baseline Difference, nintedanib vs vehicle (pterygium vascularity) ([3]; Week 16): −0.59 | Mean grade Difference, nintedanib vs vehicle (pterygium vascularity) ([3]; Week 16): −0.7 | Mean change from baseline Difference, nintedanib vs vehicle (pterygium vascularity) ([3]; Week 24 (end of study)): −0.17 | Mean grade Difference, nintedanib vs vehicle (pterygium vascularity) ([3]; Week 24 (end of study)): −0.31 | persistence of effect on pterygium vascularity ([3]; after 28 days TID dosing): maintained through Week 16 | effect on pterygium vascularity ([3]; by Week 2): highly significant
